Patent US12552772B2, “2-pyrazole anilines and related analogs for inhibiting YAP/TAZ-TEAD” (KATHOLIEKE UNIVERSITEIT LEUVEN, priority 2021, dated 2026)

Legend:
Format in all cases: cell-based
[1] = test system: NCI-H226; assay: Mesothelioma cell line proliferation assay (ATPlite), NCI-H226; details: NCI-H226 cells, 6 days, ATPlite cell viability
Description: (§1) Mesothelioma cell lines, NCI-H226 and NCI-H2052 (all sourced from the ATCC cell culture collection) are plated in 96-well plates (Corning® 96 Well White Polystyrene Microplate clear flat bottom, white polystyrene (TC-Treated)), at 1500 cells/well in full medium (RPMI 1640 ATCC modification with L-glutamine, HEPES, Phenol Red, Sodium Pyruvate, High glucose, Low sodium bicarbonate and 10% fetal bovine serum). Cells are incubated overnight at 37° C. in an incubator with 5% CO2. Then compounds, dissolved in DMSO, are added in dose-response. Cells are incubated with compound dilutions for another 6 days at 37° C. in an incubator with 5% CO2. Cell viability is quantitated using the ATPlite kit (Perkin-Elmer) and the luminescence is read-out using an Envision instrument (Perkin-Elmer). The amount of relative light units produced using the ATPlite kit is used to calculated percent of inhibition.
(§2) The activities of example compounds tested are depicted in the table below. The activity ranges A, B and C refer to EC50 values in the mesothelioma cell line proliferation assay as described as follows: “A”: EC50<1 μM; “B”: 1 μM s EC50≤10 μM and “C”: EC50>10 μM. NT: not tested.

[2] = test system: YAP/TAZ-TEAD transcription; assay: Reporter gene assay for measuring the inhibition of YAP/TAZ-TEAD transcription (TEAD-responsive element luciferase reporter in Hek293T cells); details: 24 hours incubation
In short: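 Hek293T cells transiently transfected with a TEAD-responsive element luciferase reporter were plated onto compounds and incubated 24 h at 37 °C/5% CO2. SteadyLite luminescence gave percent inhibition, normalised to vehicle (0%) and positive control inhibitor (100%); EC50 derived.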

[3] = test system: NCI-H2052; assay: Mesothelioma cell line proliferation assay (ATPlite), NCI-H2052; details: NCI-H2052 cells, 6 days, ATPlite cell viability
Description: as §1, §2

EC50 [1]	EC50 [2]	EC50 [3]	EC50 ([1]; Homo sapiens, 144 h)	EC50 ([2]; Homo sapiens, HEK-293T)	EC50 ([3]; Homo sapiens, NCI-H2052, 144 h)	SMILES
< 1000 nM	< 1000 nM	1000 to 10000 nM	–	–	–	C=CC(=O)N1CCC(c2ccc(-c3ccc(F)cc3)cc2-c2ccn(C(F)F)n2)C1 (stereo not drawn) [Cpd. No. 261-En1, 1-(3-(3-(1-(difluoromethyl)-1H-pyrazol-3-yl)-4′-fluoro-[1,1′-biphenyl]-4-yl)pyrrolidin-1-yl)prop-2-en-1-one]
< 1000 nM	< 1000 nM	> 10000 nM	–	–	–	C=CC(=O)N1CCC(c2ccc(-c3ccc(F)cc3)cc2-c2ccn(C(F)F)n2)C1 (stereo not drawn) [Cpd. No. 261-En2, 1-(3-(3-(1-(difluoromethyl)-1H-pyrazol-3-yl)-4′-fluoro-[1,1′-biphenyl]-4-yl)pyrrolidin-1-yl)prop-2-en-1-one]
–	–	1000 to 10000 nM	< 1000 nM	< 1000 nM	–	C=CC(=O)N1CCC(c2cnc(-c3ccc(F)cc3)cc2-c2ccn(C(F)F)n2)C1 (stereo not drawn) [Cpd. No. 262, 1-(3-(4-(1-(difluoromethyl)-1H-pyrazol-3-yl)-6-(4-fluorophenyl)pyridin-3-yl)pyrrolidin-1-yl)prop-2-en-1-one]
< 1000 nM	< 1000 nM	1000 to 10000 nM	–	–	–	C=CC(=O)N1CCC(c2cnc(-c3ccc(F)cc3)cc2-c2ccn(C(F)F)n2)C1 (stereo not drawn) [Cpd. No. 262-En1, 1-(3-(4-(1-(difluoromethyl)-1H-pyrazol-3-yl)-6-(4-fluorophenyl)pyridin-3-yl)pyrrolidin-1-yl)prop-2-en-1-one]
< 1000 nM	< 1000 nM	> 10000 nM	–	–	–	C=CC(=O)N1CCC(c2cnc(-c3ccc(F)cc3)cc2-c2ccn(C(F)F)n2)C1 (stereo not drawn) [Cpd. No. 262-En2, 1-(3-(4-(1-(difluoromethyl)-1H-pyrazol-3-yl)-6-(4-fluorophenyl)pyridin-3-yl)pyrrolidin-1-yl)prop-2-en-1-one]
–	–	–	> 10000 nM	1000 to 20000 nM	> 10000 nM	CNS(=O)(=O)CCNc1cc(-c2ccccc2)cc(-c2ccn(Cc3cccnc3)n2)c1 [compound 052, N-methyl-2-((5-(1-(pyridin-3-ylmethyl)-1H-pyrazol-3-yl)-[1,1′-biphenyl]-3-yl)amino)ethane-1-sulfonamide]
–	–	–	< 1000 nM	< 1000 nM	1000 to 10000 nM	C=CC(=O)Nc1cc(-c2ccccc2)cc(-c2ccn(Cc3cccnc3)n2)c1 [compound 083, N-(5-(1-(pyridin-3-ylmethyl)-1H-pyrazol-3-yl)-[1,1′-biphenyl]-3-yl)acrylamide]
–	–	–	1000 to 10000 nM	< 1000 nM	> 10000 nM	CNS(=O)(=O)CCNc1cnc(-c2ccc(F)cc2)cc1-c1ccn(C(F)F)n1 [compound 131, 2-((4-(1-(difluoromethyl)-1H-pyrazol-3-yl)-6-(4-fluorophenyl)pyridin-3-yl)amino)-N-methylethane-1-sulfonamide]
–	–	–	> 10000 nM	< 1000 nM	> 10000 nM	CNS(=O)(=O)CCNc1ccc(-c2ccc(F)cc2)nc1-c1ccn(C(F)F)n1 [compound 132, 2-((2-(1-(difluoromethyl)-1H-pyrazol-3-yl)-6-(4-fluorophenyl)pyridin-3-yl)amino)-N-methylethane-1-sulfonamide]
–	–	–	< 1000 nM	< 1000 nM	> 10000 nM	C=CC(=O)NCc1cc(-c2ccccc2)cc(-c2ccn(C)n2)c1 [compound 137, N-((5-(1-methyl-1H-pyrazol-3-yl)-[1,1′-biphenyl]-3-yl)methyl)acrylamide]
–	–	–	< 1000 nM	< 1000 nM	< 1000 nM	C=CC(=O)NCc1ccc(-c2ccc(C(F)(F)F)cc2)cc1-c1ccn(C)n1 [compound 140, N-((3-(1-methyl-1H-pyrazol-3-yl)-4′-(trifluoromethyl)-[1,1′-biphenyl]-4-yl)methyl)acrylamide]
–	–	–	< 1000 nM	< 1000 nM	< 1000 nM	C=CC(=O)NCc1ccc(-c2cccc(C(F)(F)F)c2)cc1-c1ccn(C)n1 [compound 141, N-((3-(1-methyl-1H-pyrazol-3-yl)-3′-(trifluoromethyl)-[1,1′-biphenyl]-4-yl)methyl)acrylamide]
–	–	–	< 1000 nM	< 1000 nM	< 1000 nM	C=CC(=O)NCc1ccc(-c2cccc(F)c2)cc1-c1ccn(C)n1 [compound 142, N-((3′-fluoro-3-(1-methyl-1H-pyrazol-3-yl)-[1,1′-biphenyl]-4-yl)methyl)acrylamide]
–	–	–	< 1000 nM	< 1000 nM	< 1000 nM	C=CC(=O)NCc1ccc(-c2ccc(F)cc2)cc1-c1ccn(C)n1 [compound 143, N-((4′-fluoro-3-(1-methyl-1H-pyrazol-3-yl)-[1,1′-biphenyl]-4-yl)methyl)acrylamide]
–	–	–	< 1000 nM	< 1000 nM	< 1000 nM	C=CC(=O)NCc1ccc(-c2ccc(F)c(F)c2)cc1-c1ccn(C)n1 [compound 144, N-((3′,4′-difluoro-3-(1-methyl-1H-pyrazol-3-yl)-[1,1′-biphenyl]-4-yl)methyl)acrylamide]
–	–	–	< 1000 nM	< 1000 nM	< 1000 nM	C=CC(=O)NCc1ccc(-c2ccc(F)cc2F)cc1-c1ccn(C)n1 [compound 145, N-((2′,4′-difluoro-3-(1-methyl-1H-pyrazol-3-yl)-[1,1′-biphenyl]-4-yl)methyl)acrylamide]
–	–	–	< 1000 nM	< 1000 nM	< 1000 nM	C=CC(=O)NCc1ccc(-c2ccc(F)cc2)cc1-c1ccn(CCOC)n1 [compound 149, N-((4′-fluoro-3-(1-(2-methoxyethyl)-1H-pyrazol-3-yl)-[1,1′-biphenyl]-4-yl)methyl)acrylamide]
–	–	–	< 1000 nM	< 1000 nM	< 1000 nM	C=CC(=O)NCc1ccc(-c2ccc(F)cc2)cc1-c1ccn(CC2CC2)n1 [compound 153, N-((3-(1-(cyclopropylmethyl)-1H-pyrazol-3-yl)-4′-fluoro-[1,1′-biphenyl]-4-yl)methyl)acrylamide]
–	–	–	< 1000 nM	< 1000 nM	< 1000 nM	C=CC(=O)NCc1ccc(-c2ccc(Cl)cc2)cc1-c1ccn(C)n1 [compound 157, N-((4′-chloro-3-(1-methyl-1H-pyrazol-3-yl)-[1,1′-biphenyl]-4-yl)methyl)acrylamide]
–	–	–	< 1000 nM	< 1000 nM	< 1000 nM	C=CC(=O)NCc1ccc(-c2ccc(F)cc2)cc1-c1cc[nH]n1 [compound 161, N-((4′-fluoro-3-(1H-pyrazol-3-yl)-[1,1′-biphenyl]-4-yl)methyl)acrylamide]
–	–	–	< 1000 nM	< 1000 nM	< 1000 nM	C=CC(=O)NCc1ccc(-c2ccc(F)cc2)cc1-c1cnn(C)c1 [compound 162, N-((4′-fluoro-3-(1-methyl-1H-pyrazol-4-yl)-[1,1′-biphenyl]-4-yl)methyl)acrylamide]
–	–	–	< 1000 nM	< 1000 nM	< 1000 nM	C=CC(=O)NCc1ccc(-c2ccc(F)cc2)cc1-c1ccccn1 [compound 165, N-((4′-fluoro-3-(pyridin-2-yl)-[1,1′-biphenyl]-4-yl)methyl)acrylamide]
–	–	–	< 1000 nM	< 1000 nM	< 1000 nM	C=CC(=O)NCc1ccc(-c2ccc(F)cc2)cc1-c1ccn(C2CC2)n1 [compound 166, N-((3-(1-cyclopropyl-1H-pyrazol-3-yl)-4′-fluoro-[1,1′-biphenyl]-4-yl)methyl)acrylamide]
–	–	–	1000 to 10000 nM	< 1000 nM	< 1000 nM	C=CC(=O)NCc1ccc(-c2ccc(C(F)(F)F)cc2)cc1-c1ccn(C2CC2)n1 [compound 167, N-((3-(1-cyclopropyl-1H-pyrazol-3-yl)-4′-(trifluoromethyl)-[1,1′-biphenyl]-4-yl)methyl)acrylamide]
–	–	–	< 1000 nM	< 1000 nM	1000 to 10000 nM	C=CC(=O)NCc1cc(-c2ccc(F)cc2)cc(-c2ccn(C3CC3)n2)c1 [compound 169, N-((5-(1-cyclopropyl-1H-pyrazol-3-yl)-4′-fluoro[1,1′-biphenyl]-3-yl)methyl)acrylamide]
–	–	–	< 1000 nM	< 1000 nM	< 1000 nM	C=CC(=O)NCc1ccc(-c2ccc(F)cc2)cc1-c1ccn(C(F)F)n1 [compound 170, N-((3-(1-(difluoromethyl)-1H-pyrazol-3-yl)-4′-fluoro-[1,1′-biphenyl]-4-yl)methyl)acrylamide]
–	–	–	< 1000 nM	< 1000 nM	< 1000 nM	C=CC(=O)NCc1ccc(-c2ccc(C(F)(F)F)cc2)cc1-c1ccn(C(F)F)n1 [compound 172, N-((3-(1-(difluoromethyl)-1H-pyrazol-3-yl)-4′-(trifluoromethyl)-[1,1′-biphenyl]-4-yl)methyl)acrylamide]
–	–	–	< 1000 nM	< 1000 nM	1000 to 10000 nM	C=CC(=O)NCc1cc(-c2ccc(F)cc2)cc(-c2ccn(C(F)F)n2)c1 [compound 174, N-((5-(1-(difluoromethyl)-1H-pyrazol-3-yl)-4′-fluoro-[1,1′-biphenyl]-3-yl)methyl)acrylamide]
